In patent US8921404B2, “Azole derivatives in the form of lipase and phospholipase inhibitors” (Sanofi, priority 2005, dated 2014):

Assays:
[1] = target: hormone sensitive lipase, HSL (Rattus norvegicus (Rat), UniProt P15304); experiment: HSL inhibition assay; assay type: biochemical; conditions: partially purified HSL from rat fat cells; [3H]trioleoylglycerol substrate
Experimental: 1.1. Preparation of the Partially Purified HSL:
Isolated rat fat cells are obtained from epididymal adipose tissue from untreated male rats (Wistar, 220-250 g) by collagenase treatment in accordance with published methods (e.g. S, Nilsson et al., Anal. Biochem. 158, 1986, 399-407; G. Fredrikson et al., J. Biol. Chem. 256, 1981, 6311-6320; H. Tornquist et al., J. Biol. Chem. 251, 1976, 813-819). The fat cells from 10 rats are washed three times by flotation with 50 ml of homogenization buffer ([…] Tris/HCl, pH 7.4, 0.25 M sucrose, 1 mM ETDA, 1 mM DTT, 10 μg/ml leupeptin, 10 μg/ml antipain, 20 μg/ml pepstatin) each time and finally taken up in 10 ml of homogenization buffer. The fat cells are homogenized in a Teflon-in-glass homogenizer (Braun-Melsungen) by 10 strokes at 1500 rpm and 15° C. The homogenate is centrifuged (Sorvall SM24 tubes, 5000 rpm, 10 min, 4° C.). The subnatant between the layer of fat at the top and the pellet is removed and the centrifugation is repeated. The subnatant resulting therefrom is centrifuged again (Sorvall SM24 tubes, 20 000 rpm, 45 min, 4° C.). The subnatant is removed, and 1 g of heparin-Sepharose (Pharmacia-Biotech, CL-6B, washed 5× with 25 mM Tris/HCl, pH 7.4, 150 mM NaCl) is added. After incubation at 4° C. for 60 min (shaking at intervals of 15 min), the mixture is centrifuged (Sorvall SM24 tubes, 3000 rpm, 10 min, 4° C.). The supernatant is adjusted to pH 5.2 by adding glacial acetic acid and is incubated at 4° C. for 30 min. The precipitates are collected by centrifugation (Sorvall SS34, 12 000 rpm, 10 min, 4° C.) and suspended in 2.5 ml of 20 mM Tris/HCl, pH 7.0, 1 mM EDTA, 65 mM NaCl, 13% sucrose, 1 mM DTT, 10 μg/ml leupeptin/pepstatin/antipain. The suspension is dialyzed against 25 mM Tris/HCl, pH 7.4, 50% glycerol, 1 mM DTT, 10 μg/ml leupeptin, pepstatin, antipain at 4° C. overnight and then loaded onto a hydroxyapatite column (0.1 g per 1 ml of suspension, equilibrated with 10 mM potassium phosphate, pH 7.0, 30% glycerol, 1 mM DTT). The column is washed with four volumes of equilibration buffer at a flow rate of 20 to 30 ml/h. The HSL is eluted with one volume of equilibration buffer containing 0.5 M potassium phosphate and then dialyzed (see above) and concentrated 5- to 10-fold by ultrafiltration (Amicon Diaflo PM 10 Filter) at 4° C. The partially purified HSL can be stored at −70° C. for 4 to 6 weeks.
To prepare the substrate, 25-50 μCi of [3H]trioleoylglycerol (in toluene), 6.8 μmol of unlabeled trioleoylglycerol and 0.6 mg of phospholipids (phosphatidylcholine/phosphatidylinositol 3:1 w/v) are mixed, dried with N2 and then taken up in 2 ml of 0.1 M KPi (pH 7.0) by ultrasound treatment (Branson 250, microtip, setting 1-2, 2×1 min with an interval of 1 min). After addition of 1 ml of KPi and renewed ultrasound treatment (4×30 sec on ice with intervals of 30 sec), 1 ml of 20% BSA (in KPi) is added (final concentration of trioleoylglycerol 1.7 mM). For the reaction, 100 μl of substrate solution are pipetted into 100 μl of HSL solution (HSL prepared as above, diluted in 20 mM KPi, pH 7.0, 1 mM EDTA, 1 mM DTT, 0.02% BSA, 20 μg/ml pepstatin, 10 μg/ml leupeptin) and incubated at 37° C. for 30 min. Addition of 3.25 ml of methanol/chloroform/heptane (10:9:7) and of 1.05 ml of 0.1 M K2CO3, 0.1 M boric acid (pH 10.5) is followed by thorough mixing and finally centrifugation (800×g, 20 min). After phase separation, one equivalent of the upper phase (1 ml) is removed and the radioactivity is determined by liquid scintillation measurement.
1.3 Evaluation of the HSL-Inhibitory Effect:
Substances are normally tested in four independent mixtures. The inhibition of the HSL enzymatic activity by a test substance is determined by comparing with an uninhibited control reaction. The IC50 is calculated from an inhibition plot with at least 10 concentrations of the test substance. The GRAPHIT, Elsevier-BIOSOFT software package is used to analyze the data.

endothelial lipase (EL) = endothelial lipase (EL) (Homo sapiens (Human), UniProt Q9Y5X9); experiment: EL inhibition assay; assay type: biochemical; conditions: EL from conditioned medium of recombinant cell lines (CHO, HEK293); Bodipy phospholipid substrate
endothelial lipase (EL), sequence (Q9Y5X9 21-500, species assumed): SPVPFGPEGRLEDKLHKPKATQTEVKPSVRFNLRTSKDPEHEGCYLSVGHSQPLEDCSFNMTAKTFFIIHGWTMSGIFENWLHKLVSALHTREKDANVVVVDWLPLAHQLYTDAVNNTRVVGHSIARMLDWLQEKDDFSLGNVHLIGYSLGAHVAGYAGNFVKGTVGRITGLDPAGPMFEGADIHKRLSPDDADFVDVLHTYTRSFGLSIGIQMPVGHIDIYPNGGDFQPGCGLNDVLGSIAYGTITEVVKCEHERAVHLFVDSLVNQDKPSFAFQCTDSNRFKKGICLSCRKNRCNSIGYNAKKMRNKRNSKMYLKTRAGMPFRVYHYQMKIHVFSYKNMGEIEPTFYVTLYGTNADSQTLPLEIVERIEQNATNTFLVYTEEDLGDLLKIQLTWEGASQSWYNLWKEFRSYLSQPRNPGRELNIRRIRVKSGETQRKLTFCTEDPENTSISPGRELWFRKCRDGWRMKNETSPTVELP
Description: EL is released as secretory protein in high concentration into cell culture medium (conditioned medium) by recombinant cell lines (CHO, HEK293). This is employed as enzyme solution after concentration.
The phospholipase-specific substrate 1,2-bis(4,4-difluoro-5,7-dimethyl-4-bora-3a,4a-diaza-s-indacene-3-undecanoyl)-sn-glycero-3-phosphocholine, (manufacturer Molecular Probes) is used to characterize the enzymatic activity of endothelial lipase and the effect of inhibitors. Hydrolysis of the A1 ester linkage of this phospholipid by the enzyme liberates the fluorescent dye Bodipy which can be detected after separation by thin-layer chromatography on an HPTLC plate (silica gel 60, Merck) or directly in the reaction vessel by measuring the fluorescence.
The substrate solution is prepared by taking up 100 μg of 1,2-bis(4,4-difluoro-5,7-dimethyl-4-bora-3a,4a-diaza-s-indacene-3-undecanoyl)-sn-glycero-3-phospho-choline (manufacturer Molecular Probes), 2.4 mg of tripalmitin (Sigma) and 7.9 mg of DOP—choline (1,2-dioleoyi-sn-glycero-3-phosphocholine) in 393 μl of chloroform and then transferring 157 μl into a fresh reaction vessel. After evaporation of the solvent, the lipid mixture is dissolved in 4 ml of 200 mM TRIS-HCl, 150 mM sodium chloride, pH=7.4, by sonication twice. […] After evaporation of the eluent, the plate is read in a fluorescence scanner. […]

hormone sensitive lipase, HSL, sequence (P15304 301-1068, change not shown): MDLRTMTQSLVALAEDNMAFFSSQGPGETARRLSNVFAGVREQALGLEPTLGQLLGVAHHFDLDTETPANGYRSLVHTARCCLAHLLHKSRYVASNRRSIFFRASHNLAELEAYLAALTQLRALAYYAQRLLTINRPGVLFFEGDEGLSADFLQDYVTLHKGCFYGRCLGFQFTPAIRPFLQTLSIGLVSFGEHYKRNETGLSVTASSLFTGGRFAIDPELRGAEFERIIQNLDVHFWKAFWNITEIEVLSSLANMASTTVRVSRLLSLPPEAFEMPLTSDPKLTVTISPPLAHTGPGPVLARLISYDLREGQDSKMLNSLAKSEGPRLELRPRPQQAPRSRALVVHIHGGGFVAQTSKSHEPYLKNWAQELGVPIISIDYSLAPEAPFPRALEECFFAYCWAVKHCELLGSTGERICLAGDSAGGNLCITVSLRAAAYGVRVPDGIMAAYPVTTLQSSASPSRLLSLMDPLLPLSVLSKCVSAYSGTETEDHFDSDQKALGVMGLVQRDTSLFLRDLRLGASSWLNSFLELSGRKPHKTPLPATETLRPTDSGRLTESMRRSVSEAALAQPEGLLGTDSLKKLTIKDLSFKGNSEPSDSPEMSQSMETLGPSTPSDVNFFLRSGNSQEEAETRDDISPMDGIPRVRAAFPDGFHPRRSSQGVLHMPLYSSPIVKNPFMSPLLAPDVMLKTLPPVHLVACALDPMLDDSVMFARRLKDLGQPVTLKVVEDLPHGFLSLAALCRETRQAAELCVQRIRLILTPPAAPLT

| IC50 [1] [µM] | IC50 (endothelial lipase (EL)) [µM] | SMILES |
| --- | --- | --- |
| 0.12 |  | CC1CCN(C(=O)Oc2noc3cc(Cl)ccc23)CC1 [Example 1, 6-Chlorobenzo[d]isoxazol-3-yl 4-methylpiperidine-1-carboxylate] |
| 0.12 |  | CC1CCN(C(=O)Oc2noc3ncccc23)CC1 [Example 2, Isoxazolo[5,4-b]pyridin-3-yl 4-methylpiperidine-1-carboxylate] |
| 0.1 |  | O=C(Oc1noc2cc(Cl)ccc12)N1CCC(C(F)(F)F)CC1 [Example 3, 6-Chlorobenzo[d]isoxazol-3-yl 4-trifluoromethylpiperidine-1-carboxylate] |
| 0.1 |  | CC1CCN(C(=O)Oc2nsc3ncccc23)CC1 [Example 4, Isothiazolo[5,4-b]pyridin-3-yl 4-methylpiperidine-1-carboxylate] |
| 0.1 |  | CC1CCN(C(=O)Oc2nsc3ccccc23)CC1 [Example 5, Benzo[d]isothiazol-3-yl 4-methylpiperidine-1-carboxylate] |
|  | 14.6 | Cc1ccccc1CNC(=O)Nc1nsc2ccc([N+](=O)[O-])cc12 [Example 7, 1-(2-Methylbenzyl)-3-(5-nitrobenzo[d]isothiazol-3-yl)urea] |
|  | 14.6 | CCCCCCNC(=O)Nc1noc2ccccc12 [Example 8, 1-Benzo[d]isoxazol-3-yl-3-hexylurea] |

| SMILES | IC50 [1] [µM] | IC50 (endothelial lipase (EL)) [µM] |
| --- | --- | --- |
| CC1CCN(C(=O)Oc2noc3nc(Cl)ccc23)CC1 [Example 10, 6-Chloroisoxazolo[5,4-b]pyridin-3-yl 4-methylpiperidine-1-carboxylate] | 0.67 |  |
| Cc1ccc2c(OC(=O)N3CCC(C)CC3)noc2n1 [Example 11, 6-Methylisoxazolo[5,4-b]pyridin-3-yl 4-methylpiperidine-1-carboxylate] | 0.26 |  |
